Reference: the NIST ThermoML archive (doi:10.1016/j.jct.2007.08.002)
Values joined by “and” are separate entries in the source; they are usually repeats but may differ in a detail not shown here. Equal entries are not always repeated. ± gives the expanded uncertainty stated by the source.

Assay: molar heat capacity at saturation pressure

NC12CC3CC(CC(C3)C1)C2 [tricyclo(3.3.1.1:3,7)decan-1-amine]
Details	molar heat capacity
196.06 K, Crystal 3, Small (less than 1 g) adiabatic calorimetry	135.44 ± 0.75 J/K/mol
197.25 K, Crystal 3, Small (less than 1 g) adiabatic calorimetry	136.86 ± 0.75 J/K/mol
197.97 K, Crystal 3, Small (less than 1 g) adiabatic calorimetry	137.6 ± 0.75 J/K/mol
199.25 K, Crystal 3, Small (less than 1 g) adiabatic calorimetry	139.1 ± 0.75 J/K/mol
199.88 K, Crystal 3, Small (less than 1 g) adiabatic calorimetry	139.77 ± 0.75 J/K/mol
200.91 K, Crystal 3, Small (less than 1 g) adiabatic calorimetry	140.93 ± 0.75 J/K/mol
201.79 K, Crystal 3, Small (less than 1 g) adiabatic calorimetry	142.09 ± 0.75 J/K/mol
202.24 K, Crystal 3, Small (less than 1 g) adiabatic calorimetry	142.51 ± 0.75 J/K/mol
203.56 K, Crystal 3, Small (less than 1 g) adiabatic calorimetry	144.09 ± 0.75 J/K/mol
204.88 K, Crystal 3, Small (less than 1 g) adiabatic calorimetry	145.75 ± 0.75 J/K/mol
206.19 K, Crystal 3, Small (less than 1 g) adiabatic calorimetry	147.58 ± 0.83 J/K/mol
207.51 K, Crystal 3, Small (less than 1 g) adiabatic calorimetry	149.24 ± 0.83 J/K/mol
207.53 K, Crystal 3, Small (less than 1 g) adiabatic calorimetry	149.33 ± 0.83 J/K/mol
208.81 K, Crystal 3, Small (less than 1 g) adiabatic calorimetry	151.16 ± 0.83 J/K/mol
209.45 K, Crystal 3, Small (less than 1 g) adiabatic calorimetry	152.07 ± 0.83 J/K/mol
210.11 K, Crystal 3, Small (less than 1 g) adiabatic calorimetry	152.9 ± 0.83 J/K/mol
211.36 K, Crystal 3, Small (less than 1 g) adiabatic calorimetry	154.9 ± 0.83 J/K/mol
211.41 K, Crystal 3, Small (less than 1 g) adiabatic calorimetry	154.9 ± 0.83 J/K/mol
212.7 K, Crystal 3, Small (less than 1 g) adiabatic calorimetry	156.73 ± 0.83 J/K/mol
213.28 K, Crystal 3, Small (less than 1 g) adiabatic calorimetry	157.97 ± 0.83 J/K/mol
213.99 K, Crystal 3, Small (less than 1 g) adiabatic calorimetry	158.89 ± 0.83 J/K/mol
215.2 K, Crystal 3, Small (less than 1 g) adiabatic calorimetry	161.05 ± 0.83 J/K/mol
215.27 K, Crystal 3, Small (less than 1 g) adiabatic calorimetry	161.05 ± 0.83 J/K/mol
216.55 K, Crystal 3, Small (less than 1 g) adiabatic calorimetry	163.3 ± 0.83 J/K/mol
217.12 K, Crystal 3, Small (less than 1 g) adiabatic calorimetry	164.54 ± 0.83 J/K/mol
217.82 K, Crystal 3, Small (less than 1 g) adiabatic calorimetry	165.71 ± 0.83 J/K/mol
219.04 K, Crystal 3, Small (less than 1 g) adiabatic calorimetry	168.28 ± 0.91 J/K/mol
219.1 K, Crystal 3, Small (less than 1 g) adiabatic calorimetry	168.28 ± 0.91 J/K/mol
220.36 K, Crystal 3, Small (less than 1 g) adiabatic calorimetry	170.95 ± 0.91 J/K/mol
220.96 K, Crystal 3, Small (less than 1 g) adiabatic calorimetry	172.36 ± 0.91 J/K/mol
221.61 K, Crystal 3, Small (less than 1 g) adiabatic calorimetry	173.61 ± 0.91 J/K/mol
222.86 K, Crystal 3, Small (less than 1 g) adiabatic calorimetry	176.6 ± 0.91 J/K/mol
222.88 K, Crystal 3, Small (less than 1 g) adiabatic calorimetry	176.77 ± 0.91 J/K/mol
224.1 K, Crystal 3, Small (less than 1 g) adiabatic calorimetry	179.84 ± 0.91 J/K/mol
224.8 K, Crystal 3, Small (less than 1 g) adiabatic calorimetry	181.75 ± 0.91 J/K/mol
225.33 K, Crystal 3, Small (less than 1 g) adiabatic calorimetry	183.17 ± 0.91 J/K/mol
226.55 K, Crystal 3, Small (less than 1 g) adiabatic calorimetry	186.91 ± 0.91 J/K/mol
226.72 K, Crystal 3, Small (less than 1 g) adiabatic calorimetry	187.57 ± 0.91 J/K/mol
227.76 K, Crystal 3, Small (less than 1 g) adiabatic calorimetry	190.82 ± 1 J/K/mol
228.63 K, Crystal 3, Small (less than 1 g) adiabatic calorimetry	194.14 ± 1 J/K/mol
228.97 K, Crystal 3, Small (less than 1 g) adiabatic calorimetry	195.22 ± 1 J/K/mol
230.16 K, Crystal 3, Small (less than 1 g) adiabatic calorimetry	200.21 ± 1 J/K/mol
230.54 K, Crystal 3, Small (less than 1 g) adiabatic calorimetry	202.12 ± 1 J/K/mol
231.34 K, Crystal 3, Small (less than 1 g) adiabatic calorimetry	205.78 ± 1 J/K/mol
232.45 K, Crystal 3, Small (less than 1 g) adiabatic calorimetry	211.52 ± 1.1 J/K/mol
232.51 K, Crystal 3, Small (less than 1 g) adiabatic calorimetry	211.69 ± 1.1 J/K/mol
233.67 K, Crystal 3, Small (less than 1 g) adiabatic calorimetry	218.01 ± 1.1 J/K/mol
234.36 K, Crystal 3, Small (less than 1 g) adiabatic calorimetry	222.33 ± 1.1 J/K/mol
234.81 K, Crystal 3, Small (less than 1 g) adiabatic calorimetry	225.16 ± 1.1 J/K/mol
235.93 K, Crystal 3, Small (less than 1 g) adiabatic calorimetry	233.22 ± 1.2 J/K/mol
236.25 K, Crystal 3, Small (less than 1 g) adiabatic calorimetry	235.72 ± 1.2 J/K/mol
237.04 K, Crystal 3, Small (less than 1 g) adiabatic calorimetry	242.28 ± 1.2 J/K/mol
238.14 K, Crystal 3, Small (less than 1 g) adiabatic calorimetry	251.85 ± 1.2 J/K/mol and 251.6 ± 1.2 J/K/mol
239.22 K, Crystal 3, Small (less than 1 g) adiabatic calorimetry	261.49 ± 1.2 J/K/mol
240.04 K, Crystal 3, Small (less than 1 g) adiabatic calorimetry	267.14 ± 1.2 J/K/mol
240.28 K, Crystal 3, Small (less than 1 g) adiabatic calorimetry	268.64 ± 1.2 J/K/mol
241.32 K, Crystal 3, Small (less than 1 g) adiabatic calorimetry	272.38 ± 1.3 J/K/mol
241.94 K, Crystal 2	272.22 ± 5.2 J/K/mol
242.37 K, Crystal 2	270.55 ± 5.2 J/K/mol
243.42 K, Crystal 2	261.16 ± 5 J/K/mol
243.89 K, Crystal 2	258.16 ± 4.9 J/K/mol
244.49 K, Crystal 2	249.93 ± 4.8 J/K/mol
245.89 K, Crystal 2	240.12 ± 4.7 J/K/mol
247.88 K, Crystal 2	229.23 ± 4.5 J/K/mol
249.84 K, Crystal 2	225.07 ± 4.4 J/K/mol
251.78 K, Crystal 2	223.16 ± 4.4 J/K/mol
253.73 K, Crystal 2	223.33 ± 4.4 J/K/mol
255.66 K, Crystal 2	225.49 ± 4.4 J/K/mol
257.59 K, Crystal 2	226.9 ± 4.4 J/K/mol
259.52 K, Crystal 2	229.98 ± 4.5 J/K/mol
261.45 K, Crystal 2	233.3 ± 4.6 J/K/mol
263.38 K, Crystal 2	237.13 ± 4.6 J/K/mol
265.31 K, Crystal 2	241.62 ± 4.7 J/K/mol
267.23 K, Crystal 2	247.19 ± 4.7 J/K/mol
